Data as given in patent publication US9133115B2 (ACHILLION PHARMACEUTICALS, INC., priority 2008, dated 2015).

These compounds were tested on HCV replicon (assay: HCV replicon replication assay (NPT ELISA) in Huh-7 replicon-containing cells). Details: Hepatitis C virus, 72 h; HCV replicon in Huh-7 cells, three days incubation; read-out: EC50.
Type: cell-based
Procedure: Compounds claimed herein are tested for the ability to inhibit viral replication of the Hepatitis C replicon in cultured cells in which the HCV replicon construct has been incorporated. The HCV replicon system was described by Bartenschlager, et. al (Science, 285, pp. 110-113 (1999)). The replicon system is predictive of in vivo anti-HCV activity; compounds that are active in humans uniformly evidence activity in the replicon assay.
In this assay HCV replicon containing cells are treated with different concentrations of the test compound to ascertain the ability of the test compound to suppress replication of the HCV replicon. As a positive control, HCV replicon-containing cells are treated with different concentrations of interferon alpha, a known inhibitor of HCV replication. The replicon assay system includes Neomycin Phosphotransferase (NPT) as a component of the replicon itself in order to detect the transcription of replicon gene products in the host cell. Cells in which the HCV replicon is actively replicating have high levels of NPT; the level of NPT is proportional to HCV replication. […] The NPT level of each sample is measured using a captured ELISA.
A protocol for testing compounds for the ability to inhibit viral replication of the Hepatitis C replicon cultured cells in which the replicon construct has been incorporated, follows.
The HCV replicon contains, 5′-3′, the HCV-IRES, the neomycin phosphotransferase (neo) gene, the IRES of encephalomyocarditis virus, which directs translation of HCV sequences NS3 to NS5B, and the 3′-NTR. The sequence of the HCV replicon has been deposited in GenBank (Accession no. AJ242652).
The replicon is transfected into Huh-7 cells using standard methods such as electroporation.
The equipment and materials include, but are not limited to, Huh-7 HCV replicon-containing cells, maintenance media (DMEM (Dulbecco's modified Eagle media) supplemented with 10% FBS, L-glutamine, non-essential amino acids, penicillin (100 units/ml), streptomycin (100 micrograms/ml), and 500 micrograms/ml of Geneticin (G418), screening media (DMEM supplemented with 10% FBS, L-glutamine, non-essential amino acids, penicillin (100 units/ml) and streptomycin (100 micrograms/ml)), 96 well tissue culture plates (flat bottom), 96 well plates (U bottom for drug dilution), Interferon alpha for positive control, fixation reagent (such as methanol: acetone), primary antibody (rabbit anti-NPTII), secondary antibody: Eu-N1 l, and enhancement solution.
HCV replicon-containing cells support high levels of viral RNA replicon replication when their density is suitable. Over-confluency causes decreased viral RNA replication. Therefore, cells must be kept growing in log phase in the presence of 500 micrograms/ml of G418. Generally, cells should be passed twice a week at 1: 4-6 dilution. Cell maintenance is conducted as follows:
HCV replicon-containing cells are examined under a microscope to ensure that cells growing well. Cells are rinsed once with PBS and 2 ml trypsin is added. The cell/trypsin mixture is incubated at 37° C. in a CO2 incubator for 3-5 minutes. After incubation 10 ml of complete media is added to stop the trypsinization reaction. Cells are blown gently, put into a 15 ml tube, and spun at 1200 rpm for 4 minutes. The trypsin/medium solution is removed. Medium (5 ml) is added and the cells are mixed carefully. The cells are counted.
The cells are then seeded onto 96-well plates at a density of 6000-7500 cells/100 microliters/well (6-7.5×10^5 cells/10 ml/plate). The plates are then incubated at 37° C. in a 5% CO2 incubator.
Cells are examined under a microscope approximated 24 hours after seeding and prior to adding drugs. If counting and dilution were performed correctly, cells are 60-70% confluent and nearly all cells should attach and spread evenly in the well.
HCV replicon-containing cells are rinsed with once PBS once; 2 mls of trypsin are then added. Cells are incubated at 37° C. in a 5% CO2 incubator for 3-5 minutes. […]

| Compound | EC50 [nM] |
| --- | --- |
| C=CC1CC1(NC(=O)[C@@H]1C[C@@H](Oc2cc(-c3ccccc3)nc3cc(OC)ccc23)CN1C(=O)C[C@H](C(=O)NC1CCCC1)C(C)(C)C)C(=O)NS(=O)(=O)C1CC1 (stereo partly drawn) [Compound 46] | < 1000 |
| C=CC1CC1(NC(=O)[C@@H]1C[C@@H](Oc2cc(-c3ccccc3)nc3cc(OC)ccc23)CN1C(=O)C[C@H](C(=O)N1C(=O)OC[C@@H]1Cc1ccccc1)C(C)(C)C)C(=O)NS(=O)(=O)C1CC1 (stereo partly drawn) [Compound 47, (2S,4R)-1-((S)-3-((S)-4-benzyl-2-oxooxazolidine-3-carbonyl)-4,4-dimethyl-pentanoyl)-N-(1-(cyclopropyl-sulfonylcarbamoyl)-2-vinylcyclopropyl)-4-(7-methoxy-2-phenylquinolin-4-yloxy)pyrrolidine-2-carboxamide] | 1000 to 10000 |
| C=C[C@@H]1C[C@]1(NC(=O)[C@@H]1C[C@@H](Oc2cc(-c3ccccc3)nc3cc(OC)ccc23)CN1C(=O)[C@@H](CC(=O)N1CCOCC1)C(C)(C)C)C(=O)NS(=O)(=O)C1CC1 [Compound 48, (2S,4R)-1-((S)-2-tert-butyl-4-morpholino-4-oxobutanoyl)-N-((1R,2S)-1-(cyclo-propylsulfonyl-carbamoyl)-2-vinylcyclopropyl)-4-(7-methoxy-2-phenylquinolin-4-yloxy)pyrrolidine-2-carboxamide] | < 1000 |
| C=C[C@@H]1C[C@]1(NC(=O)[C@@H]1C[C@@H](Oc2cc(-c3ccccc3)nc3cc(OC)ccc23)CN1C(=O)[C@@H](CC(=O)NC1CCCC1)C(C)(C)C)C(=O)NS(=O)(=O)C1CC1 [Compound 49, (2S,4R)-1-((S)-2-tert-butyl-4-(cyclopentylamino)-4-oxobutanoyl)-N-((1R,2S)-1-(cyclopropyl-sulfonylcarbamoyl)-2-vinylcyclopropyl)-4-(7-methoxy-2-phenylquinolin-4-yloxy)pyrrolidine-2-carboxamide] | < 1000 |
| C=CC1CC1(NC(=O)[C@@H]1C[C@@H](OC(=O)N2Cc3cccc(F)c3C2)CN1C(=O)[C@@H](CC(=O)N1CCCCC1)C(C)(C)C)C(=O)NS(=O)(=O)C1CC1 (stereo partly drawn) [Compound 50, (3R,5S)-1-((S)-2-tert-butyl-4-oxo-4-(piperidin-1-yl)butanoyl)-5-(1-(cyclopropyl-sulfonylcarbamoyl)-2-vinylcyclopropyl-carbamoyl)pyr-rolidin-3-yl 4-fluoroisoindoline-2-carboxylate] | < 1000 |
| C=CC1CC1(NC(=O)C1C[C@@H](Oc2cc(-c3ccccc3)nc3cc(OC)ccc23)CN1C(=O)[C@H](CC(=O)N1CCCCC1)CC(C)C)C(=O)NS(=O)(=O)C1CC1 (stereo partly drawn) [Compound 51, (4R)-N-(1-(cyclopropyl-sulfonylcarbamoyl)-2-vinylcyclopropyl)-4-(7-methoxy-2-phenylquinolin-4-yloxy)-1-((S)-4-methyl-2-(2-oxo-2-(piperidin-1-yl)ethyl)pentano-yl)pyrrolidine-2-carboxamide] | 1000 to 10000 |
| C=CC1CC1(NC(=O)C1C[C@@H](Oc2cc(-c3ccccc3)nc3cc(OC)ccc23)CN1C(=O)[C@@H](CC(=O)N1CCCCC1)Cc1ccccc1)C(=O)NS(=O)(=O)C1CC1 (stereo partly drawn) [Compound 52, (4R)-1-((R)-2-benzyl-4-oxo-4-(piperidin-1-yl)butanoyl)-N-(1-(cyclopropyl-sulfonylcarbamoyl)-2-vinylcyclopropyl)-4-(7-methoxy-2-phenylquinolin-4-yloxy)pyrrolidine-2-carboxamide] | < 1000 |
| C=CC1CC1(NC(=O)C1C[C@@H](Oc2cc(-c3ccccc3)nc3cc(OC)ccc23)CN1C(=O)[C@@H](CC(=O)N1CCCCC1)C1CCCCC1)C(=O)NS(=O)(=O)C1CC1 (stereo partly drawn) [Compound 53, (4R)-1-((S)-2-cyclohexyl-4-oxo-4-(piperidin-1-yl)butanoyl)-N-(1-(cyclopropyl-sulfonylcarbamoyl)-2-vinylcyclopropyl)-4-(7-methoxy-2-phenylquinolin-4-yloxy)pyrrolidine-2-carboxamide] | < 1000 |
| C=CC1CC1(NC(=O)C1C[C@@H](Oc2cc(-c3ccccc3)nc3cc(OC)ccc23)CN1C(=O)[C@@H](CC(=O)N1CCCCC1)CC1CCCCC1)C(=O)NS(=O)(=O)C1CC1 (stereo partly drawn) [Compound 54, (4R)-1-((R)-2-(cyclohexylmethyl)-4-oxo-4-(piperidin-1-yl)butanoyl)-N-(1-(cyclopropyl-sulfonylcarbamoyl)-2-vinylcyclopropyl)-4-(7-methoxy-2-phenylquinolin-4-yloxy)pyrrolidine-2-carboxamide] | < 1000 |
| C=C[C@@H]1C[C@]1(NC(=O)[C@@H]1C[C@@H](Oc2cc(-c3ccccc3)nc3cc(OC)ccc23)CN1C(=O)C(CC(=O)N1CCCCC1)C(C)(C)C)C(=O)NS(=O)(=O)C1CC1 (stereo partly drawn) [Compound 55, (2S,4R)-1-(2-tert-butyl-4-oxo-4-(piperidin-1-yl)butanoyl)-N-((1R,2S)-1-(cyclopropyl-sulfonylcarbamoyl)-2-vinylcyclopropyl)-4-(7-methoxy-2-phenylquinolin-4-yloxy)pyrrolidine-2-carboxamide] | < 1000 |
| C=C[C@H]1C[C@]1(NC(=O)[C@@H]1C[C@@H](Oc2cc(-c3ccccc3)nc3cc(OC)ccc23)CN1C(=O)C[C@@H](CC1CCCC1)C(=O)N1CCCCC1)C(=O)NS(=O)(=O)C1CC1 [Compound 56, (2S,4R)-1-((R)-3-(cyclopentyl-methyl)-4-oxo-4-(piperidin-1-yl)butanoyl)-N-((1R,2R)-1-(cyclopropyl-sulfonylcarbamoyl)-2-vinylcyclopropyl)-4-(7-methoxy-2-phenylquinolin-4-yloxy)pyrrolidine-2-carboxamide] | 1000 to 10000 |
| C=C[C@H]1C[C@]1(NC(=O)[C@@H]1C[C@@H](Oc2cc(-c3ccccc3)nc3cc(OC)ccc23)CN1C(=O)[C@@H](CC(=O)N1CCCCC1)CC1CCCC1)C(=O)NS(=O)(=O)C1CC1 [Compound 57, (2S,4R)-1-((R)-2-(cyclopentylmethyl)-4-oxo-4-(piperidin-1-yl)butanoyl)-N-((1R,2R)-1-(cyclopropyl-sulfonylcarbamoyl)-2-vinylcyclopropyl)-4-(7-methoxy-2-phenylquinolin-4-yloxy)pyrrolidine-2-carboxamide] | < 1000 |
| C=C[C@H]1C[C@]1(NC(=O)[C@@H]1C[C@@H](Oc2cc(-c3ccccc3)nc3cc(OC)ccc23)CN1C(=O)[C@@H](CC(=O)N1CCCCC1)C(C)C)C(=O)NS(=O)(=O)C1CC1 [Compound 58, (2S,4R)-N-((1R,2R)-1-(cyclopropyl-sulfonylcarbamoyl)-2-vinylcyclopropyl)-1-((S)-2-isopropyl-4-oxo-4-(piperidin-1-yl)butanoyl)-4-(7-methoxy-2-phenylquinolin-4-yloxy)pyrrolidine-2-carboxamide] | < 1000 |
| C=CC1C[C@]1(NC(=O)[C@@H]1C[C@@H](Oc2cc(-c3ccccc3)nc3cc(OC)ccc23)CN1C(=O)[C@@H](CC(=O)N1CCCCC1)c1ccccc1)C(=O)NS(=O)(=O)C1CC1 (stereo partly drawn) [Compound 59, (2S,4R)-N-((1R,2R)-1-(cyclopropyl-sulfonylcarbamoyl)-2-vinylcyclopropyl)-4-(7-methoxy-2-phenylquinolin-4-yloxy)-1-((S)-4-oxo-2-phenyl-4-(piperidin-1-yl)butanoyl)pyr-rolidine-2-carboxamide] | < 1000 |
| C=C[C@H]1C[C@]1(NC(=O)[C@@H]1C[C@@H](Oc2cc(-c3ccccc3)nc3cc(OC)ccc23)CN1C(=O)[C@H](CC(=O)N1CCCCC1)CC1CCCCC1)C(=O)NS(=O)(=O)C1CC1 [Compound 60, (2S,4R)-1-((S)-2-(cyclohexylmethyl)-4-oxo-4-(piperidin-1-yl)butanoyl)-N-((1R,2R)-1-(cyclopropyl-sulfonylcarbamoyl)-2-vinylcyclopropyl)-4-(7-methoxy-2-phenylquinolin-4-yloxy)pyrrolidine-2-carboxamide] | 1000 to 10000 |
